Measurements from patent US9974784B2, “Inhibitors of activin-like receptor kinases” (The Texas A & M University System, priority 2015, dated 2018).

Columns and labels:
[1] = test system: BMP signaling; details: pharmacological inhibition of BMP signaling; cited from earlier work
[2] = molecular target: T1, ALK2 (Homo sapiens, UniProt Q04771); assay: SDS and native polyacrylamide gel electrophoresis analysis of ALK2 destabilization; details: SDS-PAGE / gel electrophoresis, FIG. 8, increasing concentrations of test compound vs control compound
T1 sequence (Q04771 21-509): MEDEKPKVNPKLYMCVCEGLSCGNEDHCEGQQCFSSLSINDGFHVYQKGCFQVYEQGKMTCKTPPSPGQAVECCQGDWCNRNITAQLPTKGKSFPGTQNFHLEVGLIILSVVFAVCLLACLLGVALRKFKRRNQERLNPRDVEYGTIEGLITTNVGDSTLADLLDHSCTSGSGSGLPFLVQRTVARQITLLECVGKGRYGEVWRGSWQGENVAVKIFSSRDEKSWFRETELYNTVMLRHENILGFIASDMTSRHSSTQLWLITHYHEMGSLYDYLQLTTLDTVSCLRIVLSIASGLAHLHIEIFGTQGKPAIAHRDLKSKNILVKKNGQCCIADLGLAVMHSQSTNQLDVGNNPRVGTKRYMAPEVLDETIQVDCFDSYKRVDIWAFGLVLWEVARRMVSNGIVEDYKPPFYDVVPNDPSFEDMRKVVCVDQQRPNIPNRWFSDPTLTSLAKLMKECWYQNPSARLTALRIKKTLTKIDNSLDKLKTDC
Method: Destabilizing effects of a compound identified by a method of the claimed invention, were observed by SDS and native polyacrylamide gel electrophoresis analyses (FIG. 8), and were confirmed by monitoring protein unfolding with a hydrophobic fluoroprobe (SYPRO orange) in 96-well plate format with a quantitative PCR instrument (Thermofluor assay). The allosteric inhibitor shifted the melting temperature of Dorsomorphin-stabilized ALK2 from approximately 55° C. down to 35° C. in a concentration dependent manner that correlated with concentration dependent inhibition of ALK2 kinase activity.
The comparative stabilities of the kinase protein were tested at varying pH levels in the presence of compounds identified by the methods of the claimed invention. […] Thermofluor assays provide independent confirmation of the effect of decreasing pH on the stability (FIG. 10) and sensitivity to an allosteric destabilizer (FIG. 11) of the kinase protein. […] Hypoxic conditions typically occur in tissues that are faced with traumas such as those caused by surgery or injury.

[3] = molecular target: T1, ALK2; assay: screening assay for compounds that bind an allosteric site of ALK2 and destabilize the protein
From the text: Screening assays were set up to identify compounds that were capable of binding to a specific location in ALK2. This location was a ring-shaped pocket that contains a single centrally located sidechain, that of a histidine in ALK1 and ALK2, and an aspartate in the other five receptor kinases of the family. Numerous compounds were docked in poses that wrap the scaffolds around the central “island” residue, with terminal groups oriented in a head-to-tail fashion. Covalent linkage of the juxtaposed groups to form macrocyclic compounds is likely feasible in many cases. Through reduction in the entropic cost of binding due to constraint of rotatable bonds, as well as other properties, macrocycles have become an attractive scaffold for medicinal chemists in modern drug discovery.
According to a further embodiment of the invention, a screening assay is carried out to identify compounds that bind to an allosteric site of ALK2 and cause destabilization of the protein.

SMILES	destabilization of ALK-2 [3]	also measured
c1ccc2c(-c3cnn4cc(-c5ccc(N6CCNCC6)cc5)cnc34)ccnc2c1 [LDN-193189]		effect on muscle [1]: leads to muscle wasting or cachexia
Cc1onc(-c2ccccc2)c1C(=O)NCC1Cc2cccc(-c3ccccn3)c2O1 (centres unmarked) [compound 8, 5-methyl-3-phenyl-N-{[7-(2-pyridinyl)-2,3-dihydro-1-benzofuran-2-yl]methyl}-4-isoxazolecarboxamide]		destabilization of ALK2 receptor kinase [2]: destabilization of ALK2 receptor kinase
Cc1cc(NS(=O)(=O)c2ccc3c(c2)C2C4CCC(C4)C2C(c2cccc(C(=O)O)c2)N3)no1 (centres unmarked) [compound 14, 3-{2-[(5-methyl-1,2-oxazol-3-yl)sulfamoyl]-5,6,6a,7,8,9,10,10a-octahydro-7,10-methanophenanthridin-6-yl}benzoic acid]	cause destabilization of ALK-2	
Cc1nc(-c2cccc(S(=O)(=O)N3CCC(C(=O)Nc4cccc5c4CCCC5)CC3)c2)no1 [compound 19, 1-[3-(5-methyl-1,2,4-oxadiazol-3-yl)benzenesulfonyl]-N-(5,6,7,8-tetrahydronaphthalen-1-yl)piperidine-4-carboxamide]	cause destabilization of ALK-2	
Cc1nc(-c2cccc(N3CC(C(=O)N4CCN(Cc5ccc6c(c5)OCO6)CC4)CC3=O)c2)no1 (centres unmarked) [compound 20, 4-[4-(1,3-benzodioxol-5-ylmethyl)piperazine-1-carbonyl]-1-[3-(5-methyl-1,2,4-oxadiazol-3-yl)phenyl]pyrrolidin-2-one]	cause destabilization of ALK-2	
Cc1nc(NS(=O)(=O)c2ccc3c(c2)C2C4CCC(C4)C2C(c2cccc(C(=O)O)c2)N3)oc1C (centres unmarked) [compound 24, 3-{2-[(4,5-dimethyl-1,3-oxazol-2-yl)sulfamoyl]-5,6,6a,7,8,9,10,10a-octahydro-7,10-methanophenanthridin-6-yl}benzoic acid]	cause destabilization of ALK-2	

More lines, main results first:

destabilization of ALK-2 [3]	SMILES	also measured
cause destabilization of ALK-2	Cc1nc(-c2cccc(S(=O)(=O)N3CCC(C(=O)NCCc4nc5ccccc5[nH]4)CC3)c2)no1 [compound 17, N-[2-(1H-1,3-benzodiazol-2-yl)ethyl]-1-[3-(5-methyl-1,2,4-oxadiazol-3-yl)benzenesulfonyl]piperidine-4-carboxamide]	
cause destabilization of ALK-2	Cc1cccc(-c2cccc(NC(=O)C3CCCN(C(=O)c4ccnc(N)c4)C3)c2)c1 (centres unmarked) [compound 28, 1-(2-aminoisonicotinoyl)-N-(3′-methyl-3-biphenylyl)-3-piperidinecarboxamide]	
